In brackets after ≈: the same amount, converted by molar mass. Several values for one entry are separate records, joined by “and”; a condition that tells them apart may be missing. Equal entries are not always repeated. Where a SMILES comes first, the peptide text is derived from it. Bridges are numbered along the chain shown (N, C = ends).
What was measured:
S. aureus ATCC43300 [1] = experiment: Effect of proteinases on activity (MIC); assay type: cell-based, Staphylococcus aureus; conditions: trypsin (pH 8.0), 1:10 w/w proteinase:peptide, 37 °C for 3 h, then MIC assay
Description: (§1) The peptide solutions were diluted twofold with the range of final concentrations were 0.015–32 µg/ml (0.003–7.273 µM) for purified H1, H2, H3, H6, and H8. The test strains were grown in MHB medium at 37 °C to an OD600 of 0.4 and diluted to 1 × 10^5 CFU/ml. The 10 µl peptide and 90 µl cell suspension were added into each well. All assays were performed in triplicate. The antimicrobial activity of NZ2114 and vancomycin were tested as positive controls. The plates were incubated at 37 °C for 18–24 h. MIC was defined as the lowest peptide concentration of ones at which there was no visible growth (Tian et al. [2009]).
(§2) The effect of pH, temperature, NaCl concentration and proteinase on the activity of peptides was evaluated. Peptides were diluted twofold, then adjusted to a pH range from 2.0 to 10.0 and incubated at 37 °C for 4 h. The thermal stability of purified peptides was determined after 1-h incubation of peptides at 4, 20, 40, 60, 80 and 100 °C in deionized water, respectively. Aliquots of peptides were incubated in various proteinases solutions [pepsin (pH 2.0), trypsin (pH 8.0), proteinase K (pH 7.0)] at a ratio of 1:10, w/w (proteinase: peptide) at 37 °C for 3 h. For the ion stability, peptides were incubated in 50, 100, 200, 300, 400, 500 mM sodium chloride solutions, respectively. Other methods and conditions were prepared as the MIC assay described above (Li et al. [2015]; Qu et al. [2016]).

S. aureus ATCC43300 [2] = experiment: Effect of temperature on activity (MIC); assay type: cell-based, Staphylococcus aureus; conditions: then MIC assay
Description: as §1, §2

S. pneumoniae CVCC1.8722 = experiment: MIC assay; assay type: cell-based, Streptococcus pneumoniae; conditions: MHB, 1 × 10^5 CFU/ml, 37 °C, 18–24 h, triplicate
Description: as §1

S. pneumoniae CVCC2350 = experiment: MIC assay; assay type: cell-based, Streptococcus pneumoniae; conditions: MHB, 1 × 10^5 CFU/ml, 37 °C, 18–24 h, triplicate
Description: as §1

S. aureus ATCC25923 = experiment: MIC assay; assay type: cell-based, Staphylococcus aureus; conditions: MHB, 1 × 10^5 CFU/ml, 37 °C, 18–24 h, no visible growth, triplicate
Description: as §1

S. aureus ATCC6538 = experiment: MIC assay; assay type: cell-based, Staphylococcus aureus; conditions: MHB, 1 × 10^5 CFU/ml, 37 °C, 18–24 h, no visible growth, triplicate
Description: as §1

S. aureus ATCC43300 [3] = experiment: Postantibiotic effect (PAE); assay type: cell-based, Staphylococcus aureus; conditions: 2 h exposure at 37 °C, 1 × 10^8 CFU/ml, drug removed by 1:10^3 dilution, mean ± SD, n = 3
Description: After 2 h, the drug was removed by diluting 1:10^3 into the MHB and incubated at 37 °C, 250 rpm. The sample was taken to plate counting every 1 h until the bacterial cultures become turbid. The PAE was calculated by the following formula: PAE = T − C, where T is the time needed for the count of CFU in the test culture to increase 1 log10 (10-fold) above the 0 h and C is the time needed for the count of CFU in the untreated control culture to increase 1 log10 above the 0 h (Giguère et al. [2012]).

E. coli CICC21530 = experiment: MIC assay; assay type: cell-based, Escherichia coli; conditions: MHB, 1 × 10^5 CFU/ml, 37 °C, 18–24 h, triplicate
Description: as §1

E. coli CVCC195 = experiment: MIC assay; assay type: cell-based, Escherichia coli; conditions: MHB, 1 × 10^5 CFU/ml, 37 °C, 18–24 h, triplicate
Description: as §1

S. aureus ATCC43300 [4] = experiment: Effect of pH on activity (MIC); assay type: cell-based, Staphylococcus aureus; conditions: then MIC assay
Description: as §1, §2

S. aureus ATCC43300 [5] = experiment: Effect of NaCl concentration on activity (MIC); assay type: cell-based, Staphylococcus aureus
Description: as §1, §2

S. pullorum CVCC1789 = experiment: MIC assay; assay type: cell-based; conditions: MHB, 1 × 10^5 CFU/ml, 37 °C, 18–24 h, triplicate
Description: as §1

S. choleraesuis CVCC503 = experiment: MIC assay; assay type: cell-based; conditions: MHB, 1 × 10^5 CFU/ml, 37 °C, 18–24 h, triplicate
Description: as §1

S. typhimurium ATCC14028 = experiment: MIC assay; assay type: cell-based; conditions: MHB, 1 × 10^5 CFU/ml, 37 °C, 18–24 h, triplicate
Description: as §1

S. aureus ATCC43300 [6] = experiment: microbe, parasite or virus in culture; assay type: cell-based, Staphylococcus aureus; conditions: for MICc (MIC of the most effective combination): checkerboard; for FIC: MICc/MICa
Description: The MIC values of four antibiotics (vancomycin, ampicillin, rifampicin and ciprofloxacin) to S. aureus ATCC43300 were tested as the MIC assay described above. The peptide solutions and antibiotics were diluted twofold with the final concentrations ranging from 1/16 to 8× MIC, and added into 96-well plates in a checkerboard fashion (White et al. [1996]). The results of combination were evaluated by calculating the fractional inhibitory concentration index (FICI) of each combination. FIC of H1, H2, H3=MIC of H1, H2, H3, respectively, in combination with antibiotic/MIC of H1, H2, H3 alone; FIC of antibiotics=MIC of antibiotic in combination with peptide/MIC of antibiotic alone; FICI = FIC of H1, H2, H3+ antibiotic, respectively. The result of interaction between two antimicrobial drugs was determined according to: FICI ≤ 0.5 refers to synergy, 0.5 < FICI ≤ 1 refers to additivity, 1 < FICI ≤ 4 refers to indifference, and FICI > 4 is defined as antagonism (Tsuji and Rybak [2006]).

S. suis CVCC3309 = experiment: MIC assay; assay type: cell-based, Streptococcus suis; conditions: MHB, 1 × 10^5 CFU/ml, 37 °C, 18–24 h, triplicate
Description: as §1

S. suis CVCC3928 = experiment: MIC assay; assay type: cell-based, Streptococcus suis; conditions: MHB, 1 × 10^5 CFU/ml, 37 °C, 18–24 h, triplicate
Description: as §1

S. suis CVCC606 = experiment: MIC assay; assay type: cell-based, Streptococcus suis; conditions: MHB, 1 × 10^5 CFU/ml, 37 °C, 18–24 h, triplicate
Description: as §1

[7] = in combination with ciprofloxacin

For CC[C@H](C)[C@@H]1NC(=O)[C@H](CO)NC(=O)[C@H](CCCCN)NC(=O)[C@@H]2CSSC[C@@H](C(=O)N[C@@H](Cc3ccc(O)cc3)C(=O)O)NC(=O)[C@H](CCCCN)NC(=O)[C@@H]3CSSC[C@H](NC(=O)[C@H](CCCNC(=N)N)NC(=O)[C@H](CC(C)C)NC(=O)[C@H](CC(=O)O)NC(=O)[C@H](CC(=O)O)NC(=O)[C@H](CCC(=O)O)NC(=O)[C@H](CC(N)=O)NC(=O)[C@H](Cc4c[nH]c5ccccc45)NC(=O)[C@@H]4CCCN4C(=O)CNC(=O)[C@H](CC(N)=O)NC(=O)[C@@H](NC(=O)CNC(=O)[C@H](Cc4ccccc4)NC(=O)CN)CSSC[C@H](NC(=O)[C@H](Cc4ccc(O)cc4)NC(=O)CNC(=O)CNC(=O)[C@H](CCCCN)NC(=O)[C@H](Cc4ccc(O)cc4)NC(=O)CNC(=O)[C@H](CCCCN)NC1=O)C(=O)N[C@@H](C)C(=O)N[C@@H](CCCCN)C(=O)NCC(=O)NCC(=O)N[C@@H](Cc1ccccc1)C(=O)N[C@@H](C(C)C)C(=O)N3)C(=O)N[C@@H](CCCNC(=N)N)C(=O)N[C@@H](CC(N)=O)C(=O)N[C@@H](Cc1c[nH]cn1)C(=O)N2 [H2] (H-GFGCNGPWNEDDLRCRNHCKSIKGYKGGYCAKGGFVCKCY-OH; disulfide 4-30, 15-37, 19-39 (inferred); N-terminus and C-terminus assumed), the “MIC after Trypsin” value (S. aureus ATCC43300 [1]) was 0.454 µM (≈ 2.01 µg/mL), the “MIC after incubation at 4 °C” value (S. aureus ATCC43300 [2]; 1 h at 4 °C in deionized water) was 0.114 µM (≈ 0.505 µg/mL) and the “MIC after incubation at 20 °C” value (S. aureus ATCC43300 [2]; 1 h at 20 °C in deionized water) was 0.114 µM (≈ 0.505 µg/mL). For the same molecule, the “MIC after incubation at 40 °C” value (S. aureus ATCC43300 [2]; 1 h at 40 °C in deionized water) was 0.114 µM (≈ 0.505 µg/mL), the “MIC after incubation at 60 °C” value (S. aureus ATCC43300 [2]; 1 h at 60 °C in deionized water) was 0.114 µM (≈ 0.505 µg/mL) and the MIC (S. pneumoniae CVCC1.8722) was 0.227 µM (≈ 1.01 µg/mL). It also gave an MIC (S. pneumoniae CVCC2350) of 0.227 µM (≈ 1.01 µg/mL), an MIC (S. aureus ATCC25923) of 0.028 µM (≈ 0.124 µg/mL) and an MIC (S. aureus ATCC6538) of 0.057 µM (≈ 0.253 µg/mL). The PAE (S. aureus ATCC43300 [3]; 1× MIC) was 0.63 h and 0.63 ± 0.13 h, the PAE (S. aureus ATCC43300 [3]; 2× MIC) was 1.75 ± 0.04 h and the MIC (E. coli CICC21530) was greater than 7.273 µM. For the same molecule, the MIC (E. coli CVCC195) was greater than 7.273 µM, the “MIC after incubation at pH2” value (S. aureus ATCC43300 [4]; pH 2, 37 °C for 4 h) was 0.114 μM and the “MIC after incubation at pH4” value (S. aureus ATCC43300 [4]; pH 4, 37 °C for 4 h) was 0.114 μM. For the same molecule, the “MIC after incubation at pH6” value (S. aureus ATCC43300 [4]; pH 6, 37 °C for 4 h) was 0.114 μM, the “MIC after incubation at pH8” value (S. aureus ATCC43300 [4]; pH 8, 37 °C for 4 h) was 0.114 μM and the “MIC after incubation at pH10” value (S. aureus ATCC43300 [4]; pH 10, 37 °C for 4 h) was 0.114 μM. The “MIC in 50 mM NaCl” value (S. aureus ATCC43300 [5]; incubated in 50 mM sodium chloride solution) was 0.114 µM (≈ 0.505 µg/mL), the “MIC in 100 mM NaCl” value (S. aureus ATCC43300 [5]; incubated in 100 mM sodium chloride solution) was 0.114 µM (≈ 0.505 µg/mL) and the “MIC in 300 mM NaCl” value (S. aureus ATCC43300 [5]; incubated in 300 mM sodium chloride solution) was 0.227 µM (≈ 1.01 µg/mL). For the same molecule, the “MIC in 400 mM NaCl” value (S. aureus ATCC43300 [5]; incubated in 400 mM sodium chloride solution) was 0.227 µM (≈ 1.01 µg/mL), the “MIC in 500 mM NaCl” value (S. aureus ATCC43300 [5]; incubated in 500 mM sodium chloride solution) was 0.227 µM (≈ 1.01 µg/mL) and the MIC (S. pullorum CVCC1789) was greater than 7.273 µM. For the same molecule, the MIC (S. choleraesuis CVCC503) was greater than 7.273 µM, the MIC (S. typhimurium ATCC14028) was greater than 7.273 µM and the “MICc (MIC of the most effective combination)” value (“MICc” for short) (S. aureus ATCC43300 [6]; in combination with ampicillin) was 0.113 µM. For the same molecule, the “MICc” value (S. aureus ATCC43300 [6]; [7]) was 0.227 µM, the “MICc” value (S. aureus ATCC43300 [6]; in combination with rifampicin) was 0.056 µM and the “MICc” value (S. aureus ATCC43300 [6]; in combination with vancomycin) was 0.113 µM. For the same molecule, the MIC (S. aureus ATCC43300 [6]; drug alone, read-out: MICa (MIC of drug alone)) was 0.113 µM, the FIC (S. aureus ATCC43300 [6]; in combination with ampicillin) was 1 and the FIC (S. aureus ATCC43300 [6]; [7]) was 2. For the same molecule, the FIC (S. aureus ATCC43300 [6]; in combination with rifampicin) was 0.5, the FIC (S. aureus ATCC43300 [6]; in combination with vancomycin) was 1 and the MIC (S. suis CVCC3309) was 0.028 µM (≈ 0.124 µg/mL). The MIC (S. suis CVCC3928) was 0.014 µM (≈ 0.062 µg/mL) and the MIC (S. suis CVCC606) was 0.028 µM (≈ 0.124 µg/mL).

From publication PMC5321639, “Design and pharmacodynamics of recombinant NZ2114 histidine mutants with improved activity against methicillin-resistant Staphylococcus aureus” (AMB Express, 2017)
